Source: ChEMBL document CHEMBL6071165, “Design, synthesis and biological evaluation of plant-derived miliusol derivatives achieve TNBC profound regression in vivo” (Eur J Med Chem, 2024)
Calls of active or inactive are those of the source. The calls are words filed in the database; no cut-off is given here.

What was measured:
MDA-MB-231 [1] = assay: Antiproliferative activity against human MDA-MB-231 cells xenografted in female BALB/c mouse model assessed as fold change in upregulation of BIP protein level at 20 mg/kg administered subcutaneously incubated for 24 hrs by Western blot analysis (reference value: 1.00%); format: functional; conditions: route sc
BT-549 [2] = assay: Induction of apoptosis in human BT-549 cells assessed as upregulation of cleavage of PARP level at 0.5 to 2 uM incubated for 24 hrs by Western blot analysis; format: functional, cell-based; conditions: dose 0.5-2 µM
MDA-MB-231 [3] = assay: Antiproliferative activity against human MDA-MB-231 cells xenografted in female BALB/c mouse model assessed as fold change in downregulation of MMP-2 protein level at 20 mg/kg administered subcutaneously incubated for 24 hrs by Western blot analysis (reference value: 1.00%); format: functional; conditions: route sc
[4] = Toxicity in female BALB/c mouse xenografted with human BT-549 cells assessed as effect on pathological changes in kidney at 5 to 20 mg/kg, sc by H and E staining based analysis; format: organism-based; conditions: in vivo, dose 5-20 mg/kg
BT-549 [5] = assay: Inhibition of tumor sphere formation in human BT-549 cells at 1 uM incubated for 24 hrs by microscopic analysis; format: functional, cell-based
[6] = Toxicity in female BALB/c mouse assessed as change in heart administered subcutaneously measured upto 16 days; format: tissue-based; conditions: in vivo, sc, 384 h, time < 16 day
BT-549 [7] = assay: Antiproliferative activity against human BT-549 cells xenografted in female BALB/c mouse model assessed as fold change in upregulation of BAX protein level at 5 mg/kg administered subcutaneously incubated for 24 hrs by Western blot analysis (reference value: 1.00%); format: functional; conditions: route sc
MDA-MB-231 [8] = assay: Inhibition of colony formation in human MDA-MB-231 cells incubated for 7 days by Crystal violet staining based analysis; format: functional, cell-based; conditions: dose 0.5-2 µM, time 7.0 day
BT-549 [9] = assay: Antiproliferative activity against human BT-549 cells xenografted in female BALB/c mouse model assessed as fold change in cleavage of caspase-3 level at 5 mg/kg administered subcutaneously incubated for 24 hrs by Western blot analysis (reference value: 1.00%); format: functional; conditions: route sc
BT-549 [10] = assay: Inhibition of glycolysis in human BT-549 cells assessed as reduction in glucose uptake at 0.5 to 2 uM incubated for 24 hrs followed by 2-NBDG staining based flow cytometric analysis; format: functional, cell-based; conditions: dose 0.5-2 µM
BT-549 [11] = assay: Induction of apoptosis in human BT-549 cells assessed as upregulation of Bax expression at 0.5 to 2 uM incubated for 24 hrs by Western blot analysis; format: functional, cell-based; conditions: dose 0.5-2 µM
[12] = molecular target: Eukaryotic translation initiation factor 3 subunit D (Homo sapiens) (UniProt O15371); assay: Induction of thermal stabilization of EIF3D in human MDA-MB-231 cells at 1 uM by CETSA analysis; format: cell-based
MDA-MB-231 [13] = assay: Induction of ER stress in human MDA-MB-231 cells assessed as increase in calcium ion content at 2 uM incubated for 24 hrs by Fluo-3AM staining based flow cytometric analysis; format: functional, cell-based
MDA-MB-231 [14] = assay: Antiproliferative activity against human MDA-MB-231 cells xenografted in female BALB/c mouse model assessed as fold change in upregulation of BIP protein level at 10 mg/kg administered subcutaneously incubated for 24 hrs by Western blot analysis (reference value: 1.00%); format: functional; conditions: route sc
MDA-MB-231 [15] = assay: Antiproliferative activity against human MDA-MB-231 cells xenografted in female BALB/c mouse model assessed as increase in E-cadherin level at 5 to 20 mg/kg administered subcutaneously by immunohistochemical staining based microscopic analysis; format: functional, organism-based; conditions: dose 5-20 mg/kg, route sc
MDA-MB-231 [16] = assay: Antiproliferative activity against human MDA-MB-231 cells xenografted in female BALB/c mouse model assessed as fold change in cleavage of caspase-3 level at 5 mg/kg administered subcutaneously incubated for 24 hrs by Western blot analysis (reference value: 1.00%); format: functional; conditions: route sc
MDA-MB-231 [17] = assay: Induction of apoptosis in human MDA-MB-231 cells assessed as late apoptotic cells at 0.5 uM incubated for 24 hrs by Annexin V-PI staining based flow cytometric analysis (reference value: 1.83%); format: functional
BT-549 [18] = assay: Inhibition of cell migration in human BT-549 cells assessed as reduction in wound healing ability at 0 to 2 uM incubated for 48 hrs by Wound healing assay; format: functional, cell-based; conditions: dose 0-2 µM
MDA-MB-231 [19] = assay: Induction of ER stress in human MDA-MB-231 cells assessed as appearance of large number of vacuoles at 1 uM incubated for 24 hrs by TEM analysis; format: functional, cell-based
BT-549 [20] = assay: Antiproliferative activity against human BT-549 cells xenografted in female BALB/c mouse model assessed as fold change in upregulation of BAX protein level at 10 mg/kg administered subcutaneously incubated for 24 hrs by Western blot analysis (reference value: 1.00%); format: functional; conditions: route sc
Mitochondrial membrane [21] = assay: Disruption of mitochondrial potential loss in human MDA-MB-231 cells assessed as increase in JC-1 monomers at 1 uM incubated for 24 hrs by JC-1 staining based flow cytometric analysis (Rvb =1.68%); format: cell membranes
[22] = Toxicity in female BALB/c mouse xenografted with human MDA-MB-231 cells assessed as effect on body weight at 5 to 20 mg/kg, sc and measured daily; format: organism-based; conditions: in vivo, dose 5-20 mg/kg
[23] = Selectivity ratio of IC50 for antiproliferative activity against human MCF-10A cells assessed as inhibition of cell proliferation incubated for 24 hrs by MTT assay to IC50 for antiproliferative activity against human MDA-MB-231 cells assessed as inhibition of cell proliferation incubated for 24 hrs by MTT assay; format: cell-based; conditions: MCF-10A cells versus MDA-MB-231 cells, read-out: Ratio IC50
Mitochondrial membrane [24] = assay: Disruption of mitochondrial potential loss in human BT-549 cells assessed as increase in JC-1 monomers at 1 uM incubated for 24 hrs by JC-1 staining based flow cytometric analysis (Rvb =1.07%); format: cell membranes
MDA-MB-231 [25] = assay: Antiproliferative activity against human MDA-MB-231 cells xenografted in female BALB/c mouse model assessed as fold change in downregulation of MMP-2 protein level at 10 mg/kg administered subcutaneously incubated for 24 hrs by Western blot analysis (reference value: 1.00%); format: functional; conditions: route sc
MDA-MB-231 [26] = assay: Inhibition of cell migration in human MDA-MB-231 cells assessed as decrease in SNAIL level at 1 uM incubated for 24 hrs by DAPI staining based immunofluorescence analysis; format: functional
BT-549 [27] = assay: Induction of ER stress in human BT-549 cells assessed as upregulation of BIP protein level at 1 uM incubated for 24 hrs by DAPI staining based immunofluorescence analysis; format: functional, cell-based
MDA-MB-231 [28] = assay: Inhibition of glycolysis in human MDA-MB-231 cells assessed as reduction in lactate production at 0.5 to 2 uM; format: functional, cell-based; conditions: dose 0.5-2 µM
BT-549 [29] = assay: Antiproliferative activity against human BT-549 cells xenografted in female BALB/c mouse model assessed as fold change in inhibition of PKM2 expression at 5 mg/kg administered subcutaneously incubated for 24 hrs by Western blot analysis (reference value: 1.05%); format: functional; conditions: route sc
BT-549 [30] = assay: Induction of apoptosis in human BT-549 cells assessed as viable cells at 1 uM incubated for 24 hrs by Annexin V-PI staining based flow cytometric analysis (reference value: 93.0%); format: functional; conditions: read-out: Activity
MDA-MB-231 [31] = assay: Induction of apoptosis in human MDA-MB-231 cells assessed as necrotic cells at 0.5 uM incubated for 24 hrs by Annexin V-PI staining based flow cytometric analysis (reference value: 1.29%); format: functional

Sequence of Eukaryotic translation initiation factor 3 subunit D (Homo sapiens) (O15371 whole entry): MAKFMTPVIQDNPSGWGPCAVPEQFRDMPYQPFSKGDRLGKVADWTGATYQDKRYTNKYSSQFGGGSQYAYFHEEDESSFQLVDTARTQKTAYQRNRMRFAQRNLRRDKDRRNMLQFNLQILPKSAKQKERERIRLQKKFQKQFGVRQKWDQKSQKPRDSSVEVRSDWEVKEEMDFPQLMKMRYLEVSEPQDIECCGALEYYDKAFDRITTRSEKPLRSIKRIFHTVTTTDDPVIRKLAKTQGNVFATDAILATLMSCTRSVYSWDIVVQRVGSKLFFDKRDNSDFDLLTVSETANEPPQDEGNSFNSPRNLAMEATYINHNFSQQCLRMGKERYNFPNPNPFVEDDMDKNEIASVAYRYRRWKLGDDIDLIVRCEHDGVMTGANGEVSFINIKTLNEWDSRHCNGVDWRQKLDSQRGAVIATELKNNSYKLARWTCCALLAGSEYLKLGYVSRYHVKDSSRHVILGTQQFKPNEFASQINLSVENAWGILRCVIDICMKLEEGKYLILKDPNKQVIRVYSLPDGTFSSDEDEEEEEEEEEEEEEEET

Activity [12]: Active | Activity (Mitochondrial membrane [21]): 42.6% | Activity (Mitochondrial membrane [24]): 56.3%
SMILES: CC(C)=CCC/C(C)=C/[C@H]1OC(=O)CC12C[C@H](OC(=O)Cc1ccc(NC(=O)/C=C/c3ccccc3)cc1)C=CC2=O (stereo partly specified)
fold change (FC) (MDA-MB-231 [1]): 2.42 | Activity (BT-549 [2]): Active | fold change (FC) (MDA-MB-231 [3]): 0.26 | Activity [4]: Non-Toxic | inhibition (BT-549 [5]): Active | Activity [6]: Non-Toxic | fold change (FC) (BT-549 [7]): 1.4 | inhibition (MDA-MB-231 [8]): Dose-Dependent Effect | fold change (FC) (BT-549 [9]): 1.64 | inhibition (BT-549 [10]): Active | Activity (BT-549 [11]): Active | Activity (MDA-MB-231 [13]): Active | fold change (FC) (MDA-MB-231 [14]): 2.1 | Activity (MDA-MB-231 [15]): Active | fold change (FC) (MDA-MB-231 [16]): 1.11 | Activity (MDA-MB-231 [17]): 16.4% | inhibition (BT-549 [18]): Active | Activity (MDA-MB-231 [19]): Active | fold change (FC) (BT-549 [20]): 1.61 | Activity [22]: Non-Toxic | selectivity ratio at 24 h [23]: 67.2 | fold change (FC) (MDA-MB-231 [25]): 0.26 | inhibition (MDA-MB-231 [26]): Active | Activity (BT-549 [27]): Active | inhibition (MDA-MB-231 [28]): Active | fold change (FC) (BT-549 [29]): 0.97 | viability at 1 µM (BT-549 [30]): 66% | Activity (MDA-MB-231 [31]): 12.7%
